Tests used:
[1] = system: bile duct ligated (BDL) rats; experiment: Bile duct ligated (BDL) rats: serum chemistry, liver histology and liver fibrosis marker mRNA; format: in vivo, rat; settings: for level of Collagen I mRNA in liver / level of alpha SMA mRNA in liver: compared to sham operated rats (p<0.05)
Method: A study of the effects of an FXR agonist (GW4064) on the livers of bile duct ligated (BDL) rats was carried out. This study was initially devised to examine the effects of FXR agonist on non-fibrotic liver damage due to cholestosis. The present researchers additionally went on to examine samples from these experiments for markers of liver fibrosis.
Male Sprague-Dawley rats (approximately 300 grams) were obtained from Charles River Laboratories Inc (Raleigh, N.C.) and were maintained on a 12 hour light/12 hour dark light cycle. Animals were anesthetized by the administration of 2-3% isoflurane. Laparotomy was performed under sterile technique and the liver and duodenum gently displaced to reveal the common bile duct. The bile duct was separated from the surrounding tissue and two ligatures of 4-0 Ethilon were placed around it. The bile duct was clamped between the two ligatures with an aneurysm clamp and the ligatures drawn tight. An additional ligature was placed proximal to the first (near the liver). The clamp was removed and the bile duct severed between the ligatures. The muscle wall was closed with 4-0 Vicryl and the skin closed with staples. Sham controls underwent laparotomy, but the bile ducts were not ligated or transected. Animals were allowed food and water ad libitum throughout the study period. Animals were anesthetized with 2-3% isoflurane and sacrificed by cardiac puncture.
Twenty-four hours after surgery, groups of rats (n=6-8) received intraperitoneal injections once daily for four days, of either (a) 5 ml/kg corn oil (vehicle); (b) 30 mg/kg GW4064 in corn oil; or (c) 15 mg/kg TUDCA in corn oil (taurine-conjugated ursodeoxycholic acid, used clinically to treat cholestosis). Sham operated animals received intraperitoneal injections of 5 ml/kg corn oil vehicle 24 hours after sham operation. Four hours after the last dose on day four, blood and livers were collected.
Serum activities of alanine aminotransferase (ALT), asparate aminotransferase (AST), sorbital dehydrogenase (SDH), y-glutamyl transferase (GGT), lactate dehydrogenase (LDH), alkaline phosphatase (ALP) and total bilirubin were determined. Serum bile acids (BILEA) were determined using a commercially available assay (Sigma Chemical Co., St Louis, Mo.).
In humans, liver fibrosis secondary to cholestatic disease is known to occur clinically. Experimentally, bile duct ligation in rats as a model of cholestosis is also known to cause liver fibrosis. In view of this, the present researchers additionally examined the BDL rat liver tissue for markers of liver fibrosis. Levels of Smooth Muscle Actin (SMA) mRNA, Collagen I mRNA, and TGFbeta1 mRNA were measured; results are graphed in FIG. 1a-1c where white bars=sham operated rats; black bars=vehicle treated BDL rats; striped bars=GW4064 treated BDL rats; and dotted bars=TUDCA treated BDL rats.

[2] = system: rats treated with carbon tetrachloride (CCl4); experiment: Chronic liver fibrosis in vivo model (twice weekly CCl4 up to eight weeks); parameters: species or system rat
Method: Male CRL:CD(SD)IGS® rats (Charles River Laboratories) weighing 250-350 were randomized into 3 groups. All rats received twice weekly intraperitoneal (ip) injections of 20% carbon tetrachloride (CCl4) in corn oil (5 ml/kg) for the duration of the study. Two weeks after the initiation of the CCl4 injections, rats in Group 1 (CCL4+Vehicle) began receiving vehicle (6% Encapsin; Cerestar Inc., IN) twice daily, rats in Group 2 (CCL4+GW4064) began receiving 30 mg/kg GW4064 in vehicle twice daily, and rats in Group 3 (CCL4+Silymarin) began receiving silymarin in vehicle twice daily. (Silymarin reduces TGFb1 and collagen deposition in fibrotic rat liver (Jia et al., J Hepatol 2001 September; 35(3):392-8).
Multiple rats from each group were sacrificed after each of four, six and eight weeks on study. Rats were also sacrificed following the two weeks of CCL4 exposure, prior to initiation of drug treatment, as well as five untreated Naive rats. An additional five untreated Naïve rats were also sacrificed at the eight week timepoint. Plasma, serum, kidneys and livers were collected for analysis. Histopathological, mRNA and serum markers of liver damage and liver fibrosis were examined.
(§1) Histopathology: The tissues were processed by standard histological techniques. Liver sections were stained with hematoxylin and eosin (H&E) using standard protocols and examined by light microscopy for necrosis and other structural changes. Immunohistochemistry was used to visualize α-smooth muscle actin (Sigma, St Louis, Mo.) according to the manufacturer's instructions. Sirius Red (Sigma, St Louis, Mo.) was used to visualize collagen according to the manufacturer's instructions. Liver sections were stained with Masson's trichrome (Sigma, St Louis, Mo.) according to the manufacturer's instructions.
(§2) Reverse Transcription Quantitative Polymerase Chain Reaction (RTQ-PCR). Total RNA was extracted from sections of rat liver using TRIzol reagent (Invitrogen) according to the manufacturer's directions. The RNA was treated with DNase I (Ambion, Austin, Tex.) at 37° C. for 30 min, followed by inactivation at 75°C. for 5 min. RNA was then quantitated using the RiboGreen RNA quantitation kit (Molecular Probes, Eugene, Oreg.). RNA expression was measured by RTQ-PCR using an ABI PRISM 7700 or 7900 Sequence Detection System (PE Applied Biosystems, Foster City, Calif.).
Serum Analysis: Serum TIMP1 (R&D Systems, Minneapolis, Minn.) levels were measured according to the manufacturer's directions.
(§3) Statistical Analysis: All data were analyzed by one-way analysis of variance (ANOVA) followed by Duncan's multiple range test. The 0.05 level of probability was used as the criteria of significance.

human hepatocytes = settings: compared to control cells; cited from earlier work
[3] = system: rats treated with carbon tetrachloride (CCl4); experiment: Acute liver fibrosis in vivo model (single dose CCl4); parameters: species or system rat
Method: Male CRL:CD(SD)IGS® rats (Charles River Laboratories) weighing 250-280 g were randomized into three groups of 5-6 rats per group. On day 1, rats in Group 1 (Control) were given a single intraperitoneal (ip) injection of corn oil (5 ml/kg). Rats in Groups 2 and 3 were given a single ip injection of 30% carbon tetrachloride (CCl4) in corn oil (5 ml/kg). Beginning four hours after the initial ip injections and continuing for four days, rats in Group 1 (Control) and Group 2 (CCl4) were given vehicle (20% Encapsin; Cerestar Inc., IN) by oral gavage twice daily. Beginning four hours after the initial ip injections and continuing for four days, rats in Group 3 (CCl4+GW4064) were given 30 mg/kg GW4064 in vehicle by oral gavage, twice daily for four days.
Four hours after the final oral dose on day four, rats were sacrificed under deep anesthesia and blood and livers were collected. A portion of liver from each rat was fixed in 10% phosphate-buffered formalin (pH 7.4). The remaining livers were snap frozen in liquid nitrogen and stored at −80° C. prior to RNA extraction.
as §1, with “actin (DAKO Corporation, CA)” for “actin (Sigma, St Louis, Mo.)”, “instructions.” for “instructions. Liver sections were stained with Masson's trichrome (Sigma, St Louis, Mo.) according to the manufacturer's instructions.”
as §2, with “from” for “from sections of”, “75° C.” for “75°C.”
as §3

[4] = system: rat hepatic stellate cells; experiment: In vitro stellate cell activation (RTQ-PCR of SMA, collagen, fibronectin mRNA); format: cell-based
Method: Rat hepatic stellate cells were isolated from male CRL:CD(SD)IGS® rats (Charles River Laboratories) as described previously. Cells were plated into six well plates at a density of 1×10^6 cells/well in DMEM-F12 media with 20% FCS. Twenty-four hours after plating, the media was replaced with media containing 0.1% DMSO (vehicle control) or 10 uM GW4064 with 0.1% DMSO. Following 2, 4, 6 or 8 days of treatment, total RNA was extracted from the cells using TRIzol reagent (Invitrogen) according to the manufacturer's directions. The RNA was treated with DNase I (Ambion, Austin, Tex.) at 37° C. for 30 min, followed by inactivation at 75° C. for 5 min. RNA was then quantitated using the RiboGreen RNA quantitation kit (Molecular Probes, Eugene, Oreg.). RNA expression was measured by RTQ-PCR using an ABI PRISM 7700 or 7900 Sequence Detection System (PE Applied Biosystems, Foster City, Calif.). For analysis, gene expression was normalized to 18S RNA. Follow-up studies were conducted using the same study design, except for a lower dose of GW4064 (3 uM). In the vehicle control group, SMA, collagen and fibronectin peaked at six days of culture; collagen and fibronectin expression began to decline following eight days in culture (FIGS. 4A-4C, white bars). […] (FIGS. 4a-4c, shaded bars; asterisk indicates p<0.05 compared to the vehicle treatment at the indicated timepoint).

[5] = 30 mg/kg GW4064 or 15 mg/kg TUDCA ip once daily for four days, compared to vehicle-treated BDL rats
[6] = twice daily from week 2, compared to CCl4+Vehicle rats
[7] = twice daily from week 2, compared to CCl4+Vehicle rats, 8 week timepoint
[8] = day four, compared to vehicle-treated BDL rats
[9] = ip once daily for four days, compared to vehicle treated BDL rats
[10] = 30 mg/kg oral gavage twice daily for four days after single CCl4, compared to CCl4+V animals
[11] = 30 mg/kg oral twice daily four days, compared to control
[12] = 30 mg/kg oral twice daily four days, compared to group 2 (CCl4+vehicle), p<0.05
[13] = 3 uM, eight days, compared to vehicle
[14] = 3 uM, six days, compared to vehicle
[15] = 10 uM, eighth day, compared to control group, normalized to 18S
[16] = 10 uM, six days, compared to vehicle control group

SMILES: C[C@H](CCC(=O)NCCS(=O)(=O)O)[C@H]1CC[C@H]2[C@@H]3[C@@H](O)C[C@@H]4C[C@H](O)CC[C@]4(C)[C@H]3CC[C@]12C [TUDCA, taurine-conjugated ursodeoxycholic acid, reference compound]
- serum level of LDH [1, 5]: significant decrease
- level of Collagen I mRNA in liver ([1]; day four): significantly different
- level of alpha SMA mRNA in liver ([1]; day four): significantly different
- liver sections, histology overall (necrosis, bile duct proliferation) ([1]; day four, compared to vehicle treated BDL rats): did not appear to differ substantially from vehicle treated BDL rats

SMILES: CC(C)c1onc(-c2c(Cl)cccc2Cl)c1COc1ccc(/C=C/c2cccc(C(=O)O)c2)c(Cl)c1 [GW4064]
- liver collagen deposition (Sirius Red) ([2]; twice daily from week 2 (GW4064 30 mg/kg), six and eight week timepoints, compared to CCl4+V animals): reduced collagen deposition
- liver TGFb1 mRNA [2, 6]: unchanged
- reduction in liver SMA mRNA [2, 6]: not statistically significant
- liver Collagen I mRNA [2, 7]: significant reductions
- liver TIMP1 mRNA [2, 7]: significant reductions
- serum TIMP1 ([2]; twice daily from week 2, compared to CCl4+Vehicle treated rats at 8 weeks, p<0.05): significant reductions
- expression of Fibroblast Growth Factor 19 (FGF19) (human hepatocytes): increased
- serum level of ALT [1, 5]: reductions
- serum level of LDH [1, 5]: reductions
- level of TGFb1 mRNA in liver ([1]; day four, compared to BDL rats receiving vehicle or TUDCA): significantly reduced
- level of Collagen I mRNA in liver ([1]; day four): significantly different
- level of alpha SMA mRNA in liver ([1]; day four): significantly different
- number of mitotic nuclei (liver histology) ([1]; day four, compared to vehicle treatment): reduced
- bile duct proliferation (liver histology) [1, 8]: reduced bile duct proliferation
- fatty cell degeneration (liver histology) [1, 8]: decreased fatty cell degeneration
- liver necrotic lesions (histology) [1, 8]: qualitatively fewer and smaller necrotic lesions
- serum bile acids [1, 9]: did not significantly reduce
- serum level of ALP [1, 9]: did not significantly reduce
- serum level of GGT [1, 9]: did not significantly reduce
- serum level of SDH [1, 9]: did not significantly reduce
- serum total bilirubin [1, 9]: did not significantly reduce
- serum level of AST ([1]; ip once daily for four days, compared to vehicle-treated BDL rats): reductions
- liver SMA (immunohistochemistry) [3, 10]: reduced SMA
- liver collagen deposition (Sirius Red) [3, 10]: reduced collagen deposition
- liver Collagen I mRNA [3, 11]: not statistically different from control
- liver SMA mRNA [3, 11]: not statistically different from control
- liver TGFb1 mRNA [3, 11]: not statistically different from control
- liver Collagen I mRNA [3, 12]: significantly decreased
- liver SMA mRNA [3, 12]: significantly decreased
- collagen mRNA [4, 13]: not significantly different from vehicle
- decrease of SMA mRNA [4, 13]: 40%
- fibronectin mRNA [4, 13]: not significantly different from vehicle
- decrease of SMA mRNA [4, 14]: 55%
- decrease of collagen mRNA [4, 14]: 31%
- decrease of fibronectin mRNA [4, 14]: 28%
- decrease of SMA mRNA [4, 15]: 84%
- decrease of collagen mRNA [4, 15]: 51%
- decrease of fibronectin mRNA [4, 15]: 79%
- SMA mRNA [4, 16]: decreased
- fibronectin mRNA [4, 16]: decreased

From patent US20110021475A1, “Compositions And Methods for Treatment Of Fibrosis” (priority 2003, published 2011)
